“Also recorded” adds a separate entry of the source. Like-named read-outs stand apart in the source and are kept apart here.
Columns and labels:
[1] = test system: NPCs; assay: Culture of fetal kidney of single allele knock-in (heterozygous) mice with CID and/or AT406; type: cell-based, mouse
[2] = test system: nephron progenitor cells; assay: Kidney organoid from nephron progenitor cells of Six2-iCaspase9-tdTomato mouse, CID administration; type: cell-based; settings: with CID administration
Protocol: Nephron progenitor cells were isolated from the Six2-iCaspase9-tdTomato mouse prepared in Experimental Example 1, and a kidney organoid was prepared by three-dimensional culture. AP20187 (hereinafter, referred to as CID) was administered to the kidney organoid.

[3] = test system: Six2-positive nephron progenitor cells; assay: Organ culture on Transwell of E11 fetal kidney of Six2-iCaspase9-tdTomato mouse with CID in medium; type: cell-based; settings: for Expression of tdTomato fluorescence in nephron progenitor cells: second day after administration
Protocol: The kidney was excised from an E11 fetus of the Six2-iCaspase9-tdTomato mouse prepared in Experimental Example 1, and organ culture was performed on a Transwell. In the group in which AP20187 (CID) was administered to the culture medium, the expression of tdTomato fluorescence in nephron progenitor cells was reduced on the second day after administration (see FIG. 4).

[4] = test system: Six2-positive nephron progenitor cells; assay: Intraperitoneal administration to neonatal Six2-iCaspase9-tdTomato mice, kidneys collected 48 hours later; type: in vivo, mouse
Protocol: AP20187 (CID) was intraperitoneally administered to neonatal Six2-iCaspase9-tdTomato mice prepared in Experimental Example 1, and the […] mouse kidneys were collected 48 hours later.

[5] = test system: Six2-positive nephron progenitor cells; assay: TUNEL staining of organ-cultured E13 fetal kidney of Six2-iCaspase9-tdTomato mouse; type: cell-based; settings: 100 nM CID, 12 hours after administration
Protocol: The kidney was excised from an E13 fetus of the Six2-iCaspase9-tdTomato mouse prepared in Experimental Example 1, and organ culture was performed on a Transwell. Apoptosis was evaluated by TUNEL staining after collection at 12 and 18 hours following the administration of 100 nM CID to the culture medium.

[6] = test system: NPCs; assay: Culture of kidneys of E13.5 fetuses of both allele knock-in (homozygous) mice with CID; type: cell-based, mouse; settings: 100 nM of CID, homozygous E13.5 fetal kidney culture
Protocol: In a case where the kidneys of E13.5 fetuses of both allele knock-in (homozygous) mice were collected, CID was added thereto, and the kidneys were cultured, it was confirmed that 90% or more of NPCs were removed by adding 100 nM of CID (see FIG. 10).

[7] = test system: NPCs; assay: Subcutaneous administration to homozygous neonatal mice; type: in vivo, mouse
[8] = test system: NPCs; assay: Administration to heterozygous neonatal mice, CID alone or combined with AT406; type: in vivo, mouse
[9] = test system: NPCs; assay: Intraperitoneal administration to pregnant dam carrying homozygous fetuses; type: in vivo, mouse
From the text: The CID was intraperitoneally administered to a pregnant dam carrying homozygous fetuses (see FIG. 15). As a result, it was confirmed that the kidney size of the neonates (PO) was reduced and the cap mesenchyme structure, which constitutes the nephrogenic niche formed by NPCs, was disrupted (see FIG. 16). […] Furthermore, a decrease in the number of glomeruli was also confirmed (see FIG. 18).

[10] = test system: glomeruli; assay: Nephron replacement: rat renal progenitor cells injected into homozygous fetal kidney, CID-added culture medium, then transplanted into immunodeficient mice; type: in vivo, mouse; settings: rat RPCs injected, day 14 after transplant into immunodeficient mice
Protocol: It was verified whether or not the replacement of nephron could be induced by transplanting the exogenous NPC at the same time as the removal of the NPC of the fetal kidney (see FIG. 20). In a case where renal progenitor cells (RPCs) of rats were injected into a homozygous fetal kidney and cultured in a CID-added culture medium, it was confirmed that at the time point of day 4, the renal progenitor cells adhered to the ureteral bud of the host and formed a chimeric cap mesenchyme (see FIG. 21). In addition, in a case where the cells were transplanted into immunodeficient mice after the cell injection and allowed to develop in vivo, it was confirmed that at the time point of day 14, the rat-derived cells differentiated into glomeruli and renal tubules, and approximately 80% of the glomeruli were replaced with rat-derived cells. A rat distal tubule connected to the collecting duct derived from the fetal mouse kidney was also confirmed (see FIG. 22).

[11] = administration at E13.5, animal at 1 month of age
[12] = intraperitoneal to pregnant dam, homozygous fetuses

CN[C@@H](C)C(=O)N[C@H]1CN(C(=O)CC(C)C)CC[C@H]2CC[C@@H](C(=O)NC(c3ccccc3)c3ccccc3)N2C1=O [AT406]
NPC removal ([1]; single administration of AT406, heterozygous fetal kidney culture): NPC removal did not occur

CC[C@H](C(=O)N1CCCC[C@H]1C(=O)O[C@H](CCc1ccc(OC)c(OC)c1)c1cccc(OCC(=O)NCC(CNC(=O)COc2cccc([C@@H](CCc3ccc(OC)c(OC)c3)OC(=O)[C@@H]3CCCCN3C(=O)[C@@H](CC)c3cc(OC)c(OC)c(OC)c3)c2)CN(C)C)c1)c1cc(OC)c(OC)c(OC)c1 [CID, AP20187]
Apoptosis of nephron progenitor cells (immunostained image) [2]: subjected to apoptosis; also recorded: Induced cell death of nephron progenitor cells was observed
Removal of Six2-positive nephron progenitor cells (immunostaining) ([3]; day 3): removal of Six2-positive nephron progenitor cells was confirmed
Expression of tdTomato fluorescence in nephron progenitor cells [3]: removal of nephron progenitor cells
Expression of tdTomato fluorescence in nephron progenitor cells ([3]; listed as AP20187): reduced
Nephron progenitor cell marker Six2 (immunostaining) in kidney [4]: disappeared; also recorded: removal of Six2-positive nephron progenitor cells in the neonatal kidney was observed
Nephron progenitor cells (red, tdTomato fluorescence) in kidney [4]: disappeared due to apoptosis
Nephron progenitor cells (red, tdTomato fluorescence) in kidney ([4]; listed as AP20187): removal of Six2-positive nephron progenitor cells in the neonatal kidney was observed
Apoptosis by TUNEL staining, co-localization with Six2-positive nephron progenitor cells [5]: TUNEL positivity was observed
NPCs removed [6]: ≥ 90%
NPC removal ([1]; 100 nM of CID alone, heterozygous fetal kidney culture): NPC removal was not confirmed
NPC removal [7]: NPC removal was confirmed
NPC removal [8]: NPC removal does not occur
Survival of animals after birth ([9]; administration at E11.5): died due to severe renal failure
Survival of animals after birth ([9]; administration at E13.5): survival of animals was confirmed
Serum urea nitrogen (BUN) compared with the control [9, 11]: significantly increased
Urinary albumin-to-creatinine ratio (ACR) compared with the control [9, 11]: significantly increased
Cap mesenchyme structure (nephrogenic niche formed by NPCs) [9, 12]: disrupted
Kidney size of the neonates (P0) [9, 12]: reduced
NPCs by immunostaining [9, 12]: disappearance of the NPCs was confirmed
Number of glomeruli [9, 12]: decrease
Glomeruli replaced with rat-derived cells [10]: approximately 80%
